Reference: patent US9498450B2, “1-aminocyclohexane derivatives for the treatment of cochlear tinnitus” (MERZ PHARMA GmbH & CO. KGaA, priority 2007, dated 2016)

System: subjects with subjective tinnitus of at least moderate severity
Experiment: Double blind placebo controlled pilot trial of neramexane for treatment of tinnitus (TBF-12/THF-12 total score)
Type: in vivo, human
Details: for Change in TBF-12 total score, Week 16 Neramexane-Placebo LSMean / TBF-12 total score, Change LSMean / TBF-12 total score, Neramexane-Placebo LSMean Diff. ± SE / TBF-12 total score, Week 16 Change Mean ± SD / TBF-12 total score, Week 16 Actual Mean ± SD: ITT-LOCF; for TBF-12 total score, Change LSMean / TBF-12 total score, Neramexane-Placebo LSMean Diff. ± SE / TBF-12 total score, Week 16 Change Mean ± SD: baseline to week 16; for improvement as compared to placebo treatment (difference): 50 mg dose group
Procedure: Visit 1 (screening): After signing the consent form, the subject underwent a physical examination and clinical laboratory testing. Patient eligibility for the study was evaluated via a check of inclusion/exclusion criteria. An initial Tinnitus Interview was conducted. The subject also completed a Tinnitus-Beeinträchtigungs-Fragebogen (THF-12) (i.e., a 12-item German modified and validated version (Greimel K V et al., Tinnitus-Beeinträchtigungs-Fragebogen (THF-12). Manual. Frankfurt am Main: Swets & Zeitlinger B. V.; 2000) of the 25-item Tinnitus Handicap Inventory or THI (Newman C W, et al. Development of the Tinnitus Handicap Inventory. Arch Otolaryngol Head Neck Surg 1996; 122(2): 143-148; Newman C W, et al. Psychometric adequacy of the Tinnitus Handicap Inventory (THI) for evaluating treatment outcome. J Am Acad Audiol 1998; 9(2): 153-160.)), a Hospital Anxiety and Depression Scale—Depression Subscale (HADS-D) Questionnaire and a Hyperacusis (Geräuschüberempfindlichkeit-Fragenbogen (GÜF)) Questionnaire (if applicable).
Visit 2 (baseline): The subject was asked about adverse events and changes in concomitant medication/disease, which events/changes were documented. The subject was evaluated for study eligibility based on a review of the inclusion/exclusion criteria. Trial procedures as well as allowed and forbidden concomitant medications were reviewed with the subject. An initial Tinnitus Interview was conducted. The subject also completed a THF-12, HADS-D Questionnaire and GÜF Questionnaire (if applicable). The subject was enrolled in the study and study medication (placebo or neramexane) was dispensed as described below.
Visit 6 (Week 16, end of treatment): This visit occurred at the end of the 12-week fixed-dose double-blind treatment period. The subject was asked about adverse events and changes in concomitant medication/disease, which changes are documented. A clinical laboratory evaluation was performed. A follow-up Tinnitus Interview was conducted, and the subject completed a THF-12, HADS-D Questionnaire and GÜF Questionnaire (if applicable). Pure-tone audiometry (air conduction) was also conducted.
Primary Outcome • The change in THF-12 total score from baseline (Visit 2) to the endpoint visit (Visit 6, i.e. Week 16) was the primary efficacy endpoint in this study.
All efficacy analyses were performed on the ITT population using the last-observation-carried-forward (LOCF) approach. For sensitivity purposes an analysis of the per-protocol set and of observed cases was performed additionally. All statistical tests used for testing the primary efficacy (confirmatory testing) and secondary efficacy criteria (exploratory), and all other statistical tests used for exploratory analyses were two-sided hypothesis tests performed at the 5% significance level. For all variables standard descriptive statistics were calculated.
Change from baseline (Visit 2) to Week 16 in THF-12 total score was analyzed using a two-way ANCOVA model with treatment group and study centers as factors and baseline THF-12 total score as covariate. […]

[1] = 25 mg/d, subjects with mild hearing loss
[2] = 25 mg/d, subjects with tinnitus duration 3 to <8 months
[3] = 25 mg/d, total study population
[4] = 50 mg/d, subjects with mild hearing loss
[5] = 50 mg/d, subjects with tinnitus duration 3 to <8 months
[6] = 50 mg/d, total study population
[7] = 75 mg/d, subjects with mild hearing loss
[8] = 75 mg/d, subjects with tinnitus duration 3 to <8 months
[9] = 75 mg/d, total study population

CC1(C)CC(C)(C)CC(C)(N)C1 [Neramexane, 1-amino-1,3,3,5,5-pentamethylcyclohexane]
Change in TBF-12 total score, Week 16 Neramexane-Placebo LSMean (25 mg/d, HADS-D Anxiety subscale 0-7 at baseline): 0.2 | Change in TBF-12 total score, Week 16 Neramexane-Placebo LSMean (25 mg/d, HADS-D Anxiety subscale 8-10 at baseline): −2.3 | Change in TBF-12 total score, Week 16 Neramexane-Placebo LSMean (25 mg/d, HADS-D Anxiety subscale >10 at baseline): 2.3 | Change in TBF-12 total score, Week 16 Neramexane-Placebo LSMean (25 mg/d, HADS-D Depression subscale 0-7 at baseline): −0.3 | Change in TBF-12 total score, Week 16 Neramexane-Placebo LSMean (25 mg/d, HADS-D Depression subscale 8-10 at baseline): 0.6 | Change in TBF-12 total score, Week 16 Neramexane-Placebo LSMean (25 mg/d, HADS-D Depression subscale >10 at baseline): 3.9 | TBF-12 total score, Change LSMean [1]: −1.3 | TBF-12 total score, Neramexane-Placebo LSMean Diff. ± SE [1]: 0.7 ± 0.9 | TBF-12 total score, Week 16 Change Mean ± SD [1]: −1.5 ± 3.4 | TBF-12 total score, Week 16 Actual Mean ± SD (25 mg/d, subjects with mild hearing loss, score range 0-24): 13.1 ± 5.8 | TBF-12 total score, Change LSMean [2]: −2.2 | TBF-12 total score, Neramexane-Placebo LSMean Diff. ± SE [2]: 0.0 ± 0.8 | TBF-12 total score, Week 16 Change Mean ± SD [2]: −2.5 ± 3.0 | TBF-12 total score, Change LSMean [3]: −1.8 | TBF-12 total score, Neramexane-Placebo LSMean Diff. ± SE [3]: 0.5 ± 0.5 | TBF-12 total score, Week 16 Change Mean ± SD [3]: −2.0 ± 3.4 | improvement as compared to placebo treatment (difference) (patients who showed a mild hearing loss, post-hoc p=0.024): −1.9 points | improvement as compared to placebo treatment (difference) (patients whose onset of tinnitus was three to eight months before treatment, post-hoc p=0.019): −1.9 points | Change in TBF-12 total score, Week 16 Neramexane-Placebo LSMean (50 mg/d, HADS-D Anxiety subscale 0-7 at baseline): −0.5 | Change in TBF-12 total score, Week 16 Neramexane-Placebo LSMean (50 mg/d, HADS-D Anxiety subscale 8-10 at baseline): −2.9 | Change in TBF-12 total score, Week 16 Neramexane-Placebo LSMean (50 mg/d, HADS-D Anxiety subscale >10 at baseline): 0.6 | Change in TBF-12 total score, Week 16 Neramexane-Placebo LSMean (50 mg/d, HADS-D Depression subscale 0-7 at baseline): −1.3 | Change in TBF-12 total score, Week 16 Neramexane-Placebo LSMean (50 mg/d, HADS-D Depression subscale 8-10 at baseline): −1.1 | Change in TBF-12 total score, Week 16 Neramexane-Placebo LSMean (50 mg/d, HADS-D Depression subscale >10 at baseline): 3.3 | TBF-12 total score, Change LSMean [4]: −3.9 | TBF-12 total score, Neramexane-Placebo LSMean Diff. ± SE [4]: −1.9 ± 0.8 | TBF-12 total score, Week 16 Change Mean ± SD [4]: −3.8 ± 3.9 | TBF-12 total score, Week 16 Actual Mean ± SD (50 mg/d, subjects with mild hearing loss, score range 0-24): 11.5 ± 5.2 | TBF-12 total score, Change LSMean [5]: −4.0 | TBF-12 total score, Neramexane-Placebo LSMean Diff. ± SE [5]: −1.9 ± 0.8 | TBF-12 total score, Week 16 Change Mean ± SD [5]: −4.2 ± 3.9 | TBF-12 total score, Week 16 Actual Mean ± SD (50 mg/d, subjects with tinnitus duration 3 to <8 months, score range 0-24): 10.0 ± 5.1 | TBF-12 total score, Change LSMean [6]: −3.1 | TBF-12 total score, Neramexane-Placebo LSMean Diff. ± SE [6]: −0.8 ± 0.5 | TBF-12 total score, Week 16 Change Mean ± SD [6]: −3.2 ± 4.1 | Change in TBF-12 total score, Week 16 Neramexane-Placebo LSMean (75 mg/d, HADS-D Anxiety subscale 0-7 at baseline): 0.1 | Change in TBF-12 total score, Week 16 Neramexane-Placebo LSMean (75 mg/d, HADS-D Anxiety subscale 8-10 at baseline): −3.1 | Change in TBF-12 total score, Week 16 Neramexane-Placebo LSMean (75 mg/d, HADS-D Anxiety subscale >10 at baseline): 0.3 | Change in TBF-12 total score, Week 16 Neramexane-Placebo LSMean (75 mg/d, HADS-D Depression subscale 0-7 at baseline): −0.9 | Change in TBF-12 total score, Week 16 Neramexane-Placebo LSMean (75 mg/d, HADS-D Depression subscale 8-10 at baseline): 0.0 | Change in TBF-12 total score, Week 16 Neramexane-Placebo LSMean (75 mg/d, HADS-D Depression subscale >10 at baseline): 0.4 | TBF-12 total score, Change LSMean [7]: −1.8 | TBF-12 total score, Neramexane-Placebo LSMean Diff. ± SE [7]: −0.2 ± 0.9 | TBF-12 total score, Week 16 Change Mean ± SD [7]: −1.9 ± 3.2 | TBF-12 total score, Week 16 Actual Mean ± SD (75 mg/d, subjects with mild hearing loss, score range 0-24): 12.0 ± 4.6 | TBF-12 total score, Change LSMean [8]: −3.3 | TBF-12 total score, Neramexane-Placebo LSMean Diff. ± SE [8]: −1.1 ± 0.8 | TBF-12 total score, Week 16 Change Mean ± SD [8]: −3.4 ± 4.0 | TBF-12 total score, Week 16 Actual Mean ± SD (75 mg/d, subjects with tinnitus duration 3 to <8 months, score range 0-24): 10.6 ± 5.0 | TBF-12 total score, Week 16 Actual Mean ± SD [9]: 11.0 ± 5.1 | TBF-12 total score, Change LSMean [9]: −2.8 | TBF-12 total score, Neramexane-Placebo LSMean Diff. ± SE [9]: −0.5 ± 0.5 | TBF-12 total score, Week 16 Change Mean ± SD [9]: −2.9 ± 3.9 | benefit compared to patients with HADS score below 10 at baseline (50 or 75 mg daily dose monotherapy, patients with HADS total score of 10 or more at baseline): weaker benefit | response (effect in treating tinnitus) compared to total study population (patients treated within three to eight months of onset of tinnitus and patients with mild hearing loss): better response | response to treatment (subgroup analysis) (subjects classified by investigators as suffering from cochlear tinnitus): responded well
